Patent publication US9506031B2, “Methods and materials for increasing potency of cells” (University of Central Florida Research Foundation, Inc., priority 2004, dated 2016)

System: human mesenchymal stem cells (MeSCs)
Test: Cardiac differentiation of human MeSCs in co-culture with cardiomyocytes (H9c2), RT-PCR with cardiac specific primers
Format: cell-based
Conditions: BrdU and/or 5-azaC 1-10 uM for 3 weeks, or nanog vector transfection; then co-culture with cardiomyocytes
Source text: Cardiac differentiation of human mesenchymal stem cells (MeSCs) is achieved through treatment with nucleotide derivatives BrdU and 5-azaC and/or forced expression of embryonic stem cell gene nanog. Following treatment, cells were placed in a co-culture with cardiac cells (cardiomyocyte cell line H9c2). Human MeSCs plated in 6-well culture plates and expanded in serum-DMEM (Delbecco's Modified Eagle's Medium) containing 10% MeSC formulated fetal bovine serum (FBS, Stem Cell, Inc) containing antibiotics/antimycotics. MeSCs were treated with varying concentrations (1-10 uM) of BrdU and/or 5-azaC for 3 weeks or transfected with mammalian expression vector containing a nanog encoding sequence. Cell media was changed every three days prior to co-culture with cardiomyocytes. Cardiomyocytes were expanded and grown to near confluence in serum-DMEM with 10% non-conditioned FBS and antibiotics/antimycotics. To differentiate cardiac cells, serum media was replaced with plain DMEM containing only antibiotics and allowed to differentiate. Co-cultures were created by combining MeSCs with cardiac cells and culturing in cardiac media. Following co-culture, cells were treated with TRIzol and gene expression was assessed using RT-PCR and cardiac specific primers. […]

SMILES | expression of cardiac specific genes (RT-PCR, gel electrophoresis)
Nc1ncn([C@@H]2O[C@H](CO)[C@@H](O)[C@H]2O)c(=O)n1 [5-azaC] | expression of cardiac specific genes
O=c1[nH]c(=O)n([C@H]2C[C@H](O)[C@@H](CO)O2)cc1Br [BrdU] | expression of cardiac specific genes
